Activity calls are given as the source filed them. The rule behind the calls is not given here.
Columns and labels:
Type in all cases: cell-based
[1] = biological target: T1, Vitamin D3 receptor (Homo sapiens) (UniProt P11473); experiment: Inhibition of human recombinant GAL4N-fused VDR LBD expressed in HEK293 cells using 1,25(OH)2D3 as substrate assessed as inhibition of cofactor interaction at 30 uM after 16 to 18 hrs by luciferase reporter gene assay relative to control
T1 sequence (whole entry): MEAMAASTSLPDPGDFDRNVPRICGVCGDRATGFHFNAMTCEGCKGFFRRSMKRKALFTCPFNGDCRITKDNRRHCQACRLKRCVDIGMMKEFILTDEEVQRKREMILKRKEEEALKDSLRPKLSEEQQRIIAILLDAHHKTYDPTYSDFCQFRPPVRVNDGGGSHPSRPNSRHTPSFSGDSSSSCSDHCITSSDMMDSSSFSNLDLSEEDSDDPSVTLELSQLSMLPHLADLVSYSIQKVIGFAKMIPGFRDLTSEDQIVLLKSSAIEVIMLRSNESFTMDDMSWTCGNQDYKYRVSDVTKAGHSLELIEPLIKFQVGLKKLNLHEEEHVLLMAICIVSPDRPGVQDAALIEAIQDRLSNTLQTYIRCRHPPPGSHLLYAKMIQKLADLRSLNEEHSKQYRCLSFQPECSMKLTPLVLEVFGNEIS

Vitamin D3 receptor = biological target: T2, Vitamin D3 receptor (Homo sapiens, UniProt P11473); experiment: Inhibition of human recombinant GAL4N-fused VDR LBD expressed in HEK293 cells using 1,25(OH)2D3 as substrate assessed as inhibition of cofactor interaction after 16 to 18 hrs by luciferase reporter gene assay
T2 sequence (P11473 whole entry): T1 sequence (whole entry)

HEK293 = experiment: Cytotoxicity to human HEK293 cells at 30 uM after 16 to 18 hrs; conditions: hek293, 30 µM

Row | Structure (SMILES) | inhibition [1] | IC50 (Vitamin D3 receptor) [µM] | Activity (HEK293)
1 | CC(C)CCN1Cc2cc(I)ccc2N[C@@H](CC(C)C)C1=O | 30% | > 30 | 
2 | CCC/C=C/c1cc2c(cc1N)N[C@@H](CC(C)C)C(=O)N(CCC(C)C)C2 |  |  | Toxic
3 | CC(C)CCN1Cc2cc(CCCO)ccc2N[C@@H](CC(C)C)C1=O | 9% | > 30 | 
4 | CCCCc1cc2c(cc1N)N[C@@H](CC(C)C)C(=O)N(CCC(C)C)C2 |  | 25 | 
5 | CC(C)CCN1Cc2cc(-c3ccc(C(=O)O)cc3)c(N)cc2N[C@@H](CC(C)C)C1=O | 8% | > 30 | 
6 | CC(C)=Cc1cc2c(cc1N)N[C@@H](CC(C)C)C(=O)N(CCC(C)C)C2 |  | 26 | 
7 | C=C(CC)c1ccc2c(c1)CN(CCC(C)C)C(=O)[C@H](CC(C)C)N2 | 32% | > 30 | 
8 | CCOC(=O)c1ccc(-c2cc3c(cc2N)N[C@@H](CC(C)C)C(=O)N(CCC(C)C)C3)cc1 |  | 14 | 
9 | CC(C)CCN1Cc2ccccc2N[C@@H](CC(C)C)C1=O | 29% | > 30 | 
10 | CC(C)CCN1Cc2cc(/C=C/CCO)ccc2N[C@@H](CC(C)C)C1=O | 28% | > 30 | 
11 | CC(C)CCN1Cc2cc(CCCCO)ccc2N[C@@H](CC(C)C)C1=O | inactive |  | 
12 | CC(C)CCN1Cc2cc(/C=C/CO)ccc2N[C@@H](CC(C)C)C1=O | 27% | > 30 | 
13 | CC(C)CCN1Cc2ccc(N)cc2N[C@@H](CC(C)C)C1=O | 7% | > 30 | 
14 | CC(C)CCN1Cc2cc(I)c(N)cc2N[C@@H](CC(C)C)C1=O |  | 30 | 
15 | CC(C)=Cc1ccc2c(c1)CN(CCC(C)C)C(=O)[C@H](CC(C)C)N2 | inactive |  | 
16 | CCCCCc1cc2c(cc1N)N[C@@H](CC(C)C)C(=O)N(CCC(C)C)C2 | 47% | > 30 | 
17 | CCOC(=O)c1ccc(-c2cc3c(cc2N)N[C@@H](CC(C)C)C(=O)N(CCC(C)C)C3)c(OCCO)c1 |  | 20 | 
18 | CC(C)CCN1Cc2cc(-c3ccccc3)c(N)cc2N[C@@H](CC(C)C)C1=O |  | 24 | 
19 | CC/C=C/c1cc2c(cc1N)N[C@@H](CC(C)C)C(=O)N(CCC(C)C)C2 | 48% | > 30 | 
20 | CC/C=C/c1ccc2c(c1)CN(CCC(C)C)C(=O)[C@H](CC(C)C)N2 | inactive |  | 
21 | CC(C)CCN1Cc2cc(CC(C)C)ccc2N[C@@H](CC(C)C)C1=O | 45% | > 30 | 

— ChEMBL document CHEMBL2321706, “Structure-activity relationship of benzodiazepine derivatives as LXXLL peptide mimetics that inhibit the interaction of vitamin D receptor with coactivators” (Bioorg Med Chem, 2013)
